The nature of data set [1]: In vitro stability testing in 2% hog kidney homogenate. It counts as in vitro ADME. To be noted: pig, kidney or brush border membranes, pH 7. How it is done:
Like most small linear polypeptides, motilin is believed to be metabolized by the brush border cells of the kidney. Therefore, kidney homogenate was chosen as the model system for assessing the relative in vivo biostability of the peptides of this invention. All peptides to be studied were incubated in hog kidney (Pel Freeze, Inc., Rogers, Ark.) (2% w/v; final volume=4 mls; buffer=HEPES pH 7.0) at 25° C. […] In order to determine suitable incubation times and sampling intervals, two experiments were conducted with each polypeptide. The first run served as a rough estimate of peptide stability. All sampling was performed in duplicate. Sample volume was 180 μl. Sample clean-up was performed by addition of 20 μl of 100% TCA (final volume=200 μl; final TCA concentration=10%). The sample was vortexed from 5 to 10 seconds to ensure equilibration, then centrifuged to spin out the precipitated proteins. Analysis was carried out on a Waters HPLC system with autoinjector, a 5 μVydac C-18 analytical column, and a Waters 481 UV detector set at 214 nm. Injection volume was 80 μl. Initial solvent conditions were 20% acetonitrile / 80% (0.1%) TFA in Milli-Q water with a 35 minute gradient running to 63% acetonitrile / 37% (0.1%) TFA at 1 ml/min. Polypeptide substrate and metabolite peaks were ratioed to the internal standard and the duplicate sample ratios were averaged. The average ratio for the peptide substrate was expressed as a percentage and plotted versus time. First-order kinetics was assumed for data treatment. The rate of disappearance of the substrate was calculated using the Enzfitter program (Biosoft). Relative half-lives were determined from the relationship: […]

Data set [2] has as its target rabbit duodenal smooth muscle strip (Oryctolagus cuniculus, UniProt G1T803). The data set is described as follows: Rabbit duodenal smooth muscle strip tissue bath assay (contractility). The class given is cell-based. The settings on record: negative logarithm of dose giving 50% of maximal response to motilin; isotonic contraction of rabbit duodenum segments. How it is done: The experimental protocol consisted of an equilibration period of 1 hour; a challenge with 10^-4 M acetylcholine followed by a wash-out period; a cumulative dose-response curve of a compound with, at the end, the addition of 10^-7 M motilin; and finally 10^-4 M acetylcholine. If the final response to 10^-4 M acetylcholine differed by more than 5% from the initial response, the results were discarded.

Data set [3] has as its target T1, motilin receptor (Oryctolagus cuniculus, UniProt G1T803).
T1 construct: from tissue; host or cells: rabbit antral smooth muscle membranes
The data set is described as follows: Motilin receptor binding affinity (displacement of [125I-Tyr7,Nle13]motilin(porcine)). The settings on record: negative logarithm of concentration displacing 50% of [125I-Tyr7,Nle13]motilin(porcine) bound to rabbit antral smooth muscle membranes; read-out: pIC50 (converted). More on the design: species or system rabbit. How it is done: The motilin receptor binding affinity of the peptides of this invention was determined by using the general procedure of Bormans, Peeters and Vantrappen, Regul. […] Fitting was performed using the iterative least-squares procedure of the SAS-software package (SAS Institute, Inc., Cary, N.C., USA).
(Displacement assays read how much labelled ligand stays bound in the presence of the test substance.)

The conditions of data set [4]: in vivo; cited from earlier work.

Positions of bridges follow the written chain, without caps; N, C: chain ends. Non-standard residues stand in square brackets, D forms with d. Residues, ends and D or L forms follow the SMILES beside them. *: point of attachment. X1 = C[N+](C)(C)[C@@H](Cc1ccccc1)C(=O)*; NMeF = CN[C@@H](Cc1ccccc1)C(=O)O

rabbit duodenal smooth muscle strip, sequence (G1T803 1-400): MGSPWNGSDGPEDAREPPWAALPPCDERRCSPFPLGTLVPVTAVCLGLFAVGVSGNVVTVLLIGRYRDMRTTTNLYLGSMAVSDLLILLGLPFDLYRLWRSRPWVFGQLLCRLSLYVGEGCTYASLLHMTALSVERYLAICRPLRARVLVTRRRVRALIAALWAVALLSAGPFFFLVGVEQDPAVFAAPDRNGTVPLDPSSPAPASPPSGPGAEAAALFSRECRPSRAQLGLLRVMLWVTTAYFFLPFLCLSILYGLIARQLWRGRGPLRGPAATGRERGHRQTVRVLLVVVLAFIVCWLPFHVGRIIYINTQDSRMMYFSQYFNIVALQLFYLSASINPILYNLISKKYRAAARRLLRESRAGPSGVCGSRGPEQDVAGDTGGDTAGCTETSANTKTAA
T1 sequence (G1T803 1-400): as above

One may read the half-life as the time in which the quantity being followed falls by half. High values mean slow decline, low ones rapid decline. A word on the pEC50: it is the EC50 on a negative log10 scale, so that one unit is a factor of ten. Higher therefore signals a low EC50. In data set [1], `CC[C@H](C)[C@H](NC(=O)[C@@H]1CCCN1C(=O)[C@@H](NC(=O)[C@H](Cc1ccccc1)NC)C(C)C)C(=O)N[C@@H](Cc1ccccc1)C(=O)N[C@H](C(=O)N[C@@H](Cc1ccc(O)cc1)C(=O)NCC(=O)N[C@@H](CCC(=O)O)C(=O)N[C@H]1CC(=O)NCCCC[C@@H](C(=O)N[C@@H](CCCCN)C(N)=O)NC(=O)[C@H](CC(C)C)NC(=O)[C@@H](CCCNC(=N)N)NC(=O)[C@H](C)NC1=O)[C@@H](C)O` [SEQ ID NO:12, cyclo^10,14 [N-MePhe^1,Asp^10,Ala^11,D-Arg^12,Leu^13,Lys^14,Lys^15]pMOT(1-15) amide] (H-[NMeF]VPIFTYGEDA[dR]LKK-NH2; lactam 10-14) showed a half-life at 0.5 mg/ml of 16 min. In addition, in data set [2], the pEC50 came out at 7.81. Also, in data set [3], the IC50 was 1.74 nM.

`CC[C@H](C)[C@H](NC(=O)[C@@H]1CCCN1C(=O)[C@@H](NC(=O)[C@H](Cc1ccccc1)NC)C(C)C)C(=O)N[C@@H](Cc1ccccc1)C(=O)N[C@H](C(=O)N[C@@H](Cc1ccc(O)cc1)C(=O)NCC(=O)N[C@@H](CCC(=O)O)C(=O)N[C@H]1CCC(=O)NCCCC[C@@H](C(=O)N[C@@H](CCCCN)C(N)=O)NC(=O)[C@H](CC(C)C)NC(=O)[C@@H](CCCNC(=N)N)NC(=O)[C@H](C)NC1=O)[C@@H](C)O` [SEQ ID NO:15, cyclo^10,14 [N-MePhe^1,Glu^10,Ala^11,D-Arg^12,Leu^13,Lys^14,Lys^15]pMOT(1-15) amide] (H-[NMeF]VPIFTYGEEA[dR]LKK-NH2; lactam 10-14) came in with a half-life at 0.5 mg/ml in data set [1] of 39 min. The molecule also registered a pEC50 in data set [2] of 7.68. Besides, the IC50 in data set [3] is 1.02 nM.

As to `CC[C@H](C)[C@H](NC(=O)[C@@H]1CCCN1C(=O)[C@@H](NC(=O)[C@H](Cc1ccccc1)[N+](C)(C)C)C(C)C)C(=O)N[C@@H](Cc1ccccc1)C(=O)N[C@H](C(=O)N[C@@H](Cc1ccc(O)cc1)C(=O)NCC(=O)N[C@@H](CCC(=O)O)C(=O)N[C@H]1CC(=O)NCCCC[C@@H](C(N)=O)NC(=O)[C@H](CC(C)C)NC(=O)[C@H](CCCNC(=N)N)NC(=O)[C@H](C)NC1=O)[C@@H](C)O` [SEQ ID NO:16, cyclo^10,14 [Me3 N^+ Phe^1,Asp^10,Ala^11 Leu^13,Lys^14]pMOT(1-14) amide] (X1-VPIFTYGEDARLK-NH2; lactam 9-13), the half-life at 0.5 mg/ml in data set [1] was 103 min. The molecule also showed a pEC50 in data set [2] of 6.98. The IC50 in data set [3] is 2.24 nM.

In data set [1], `CC[C@H](C)[C@H](NC(=O)[C@@H]1CCCN1C(=O)[C@@H](NC(=O)[C@H](Cc1ccccc1)NC)C(C)C)C(=O)N[C@@H](Cc1ccccc1)C(=O)N[C@H](C(=O)N[C@@H](Cc1ccc(O)cc1)C(=O)NCC(=O)N[C@@H](CCC(=O)O)C(=O)N[C@H]1CC(=O)NCCCC[C@@H](C(N)=O)NC(=O)[C@H](CC(C)C)NC(=O)[C@H](CCCNC(=N)N)NC(=O)[C@H](C)NC1=O)[C@@H](C)O` [SEQ ID NO:17, cyclo^10,14 [N-MePhe^1,Asp^10,Ala^11,Leu^13,Lys^14]pMOT(1-14) amide] (H-[NMeF]VPIFTYGEDARLK-NH2; lactam 10-14) registered a half-life at 0.5 mg/ml of 31 min. This molecule had a pEC50 in data set [2] of 7.95. The IC50 in data set [3] was 0.575 nM.

Regarding `CC[C@H](C)[C@H](NC(=O)[C@@H]1CCCN1C(=O)[C@@H](NC(=O)[C@H](Cc1ccccc1)[N+](C)(C)C)C(C)C)C(=O)N[C@@H](Cc1ccccc1)C(=O)N[C@H](C(=O)N[C@@H](Cc1ccc(O)cc1)C(=O)NCC(=O)N[C@@H](CCC(=O)O)C(=O)N[C@H]1CC(=O)NCCCC[C@@H](C(=O)N[C@@H](CCCCN)C(N)=O)NC(=O)[C@H](CC(C)C)NC(=O)[C@H](CCCNC(=N)N)NC(=O)[C@H](C)NC1=O)[C@@H](C)O` [SEQ ID NO:18, cyclo^10,14 [Me3 N^+ Phe^1,Asp^10,Ala^11,Leu^13,Lys^14,Lys^15]pMOT(1-15) amide] (X1-VPIFTYGEDARLKK-NH2; lactam 9-13), the half-life at 0.5 mg/ml in data set [1] came out at 413 min. Further, in data set [2], the pEC50 turned out to be 7.72. For the same molecule, the IC50 in data set [3] is 1.78 nM.

The molecule `CC[C@H](C)[C@H](NC(=O)[C@@H]1CCCN1C(=O)[C@@H](NC(=O)[C@H](Cc1ccccc1)[N+](C)(C)C)C(C)C)C(=O)N[C@@H](Cc1ccccc1)C(=O)N[C@H](C(=O)N[C@@H](Cc1ccc(O)cc1)C(=O)NCC(=O)N[C@@H](CCC(=O)O)C(=O)N[C@H]1CC(=O)NCCCC[C@@H](C(=O)N[C@@H](CCCCN)C(N)=O)NC(=O)[C@H](CC(C)C)NC(=O)[C@@H](CCCNC(=N)N)NC(=O)[C@H](C)NC1=O)[C@@H](C)O` [SEQ ID NO:19, cyclo^10,14 [ME3 N^+ Phe^1,Asp^10,Ala^11,D-Arg^12,Leu^13,Lys^14,Lys^15]pMOT(1-15) amide] (X1-VPIFTYGEDA[dR]LKK-NH2; lactam 9-13) registered a half-life at 0.5 mg/ml in data set [1] of 85 min. The molecule further registered a pEC50 in data set [2] of 7.72. Moreover, the IC50 in data set [3] is 2.88 nM.

In the case of `CC[C@H](C)[C@H](NC(=O)[C@@H]1CCCN1C(=O)[C@@H](NC(=O)[C@H](Cc1ccccc1)[N+](C)(C)C)C(C)C)C(=O)N[C@@H](Cc1ccccc1)C(=O)N[C@H](C(=O)N[C@@H](Cc1ccc(O)cc1)C(=O)NCC(=O)N[C@@H](CCC(=O)O)C(=O)N[C@H]1CCC(=O)NCCCC[C@@H](C(=O)N[C@@H](CCCCN)C(N)=O)NC(=O)[C@H](CC(C)C)NC(=O)[C@@H](CCCNC(=N)N)NC(=O)[C@H](C)NC1=O)[C@@H](C)O` [SEQ ID NO:20, cyclo^10,14 [Me3 N^+ Phe^1,Glu^10,Ala^11,D-Arg^12,Leu^13,Lys^14,Lys^15]pMOT(1-15) amide] (X1-VPIFTYGEEA[dR]LKK-NH2; lactam 9-13), the half-life at 0.5 mg/ml in data set [1] was determined as 49 min. In data set [2], this molecule yielded a pEC50 of 7.34. The IC50 in data set [3] was 1.55 nM.

For the molecule `CC[C@H](C)[C@H](NC(=O)[C@@H]1CCCN1C(=O)[C@@H](NC(=O)[C@H](Cc1ccccc1)[N+](C)(C)C)C(C)C)C(=O)N[C@@H](Cc1ccccc1)C(=O)N[C@H](C(=O)N[C@@H](Cc1ccc(O)cc1)C(=O)NCC(=O)N[C@@H](CCC(=O)O)C(=O)N[C@H]1CCC(=O)NCCCC[C@@H](C(=O)N[C@@H](CCCCN)C(N)=O)NC(=O)[C@H](CC(C)C)NC(=O)[C@H](CCCNC(=N)N)NC(=O)[C@H](C)NC1=O)[C@@H](C)O` [SEQ ID NO:21, cyclo^10,14 [Me3 N^+ Phe^1,Glu^10,Ala^11,Leu^13,Lys^14,Lys^15]pMOT(1-15) amide] (X1-VPIFTYGEEARLKK-NH2; lactam 9-13), the half-life at 0.5 mg/ml in data set [1] turned out to be 267 min. Further, the pEC50 in data set [2] was 7.76. Further, in data set [3], the IC50 was 1.35 nM.

In the case of `CC[C@H](C)[C@H](NC(=O)[C@@H]1CCCN1C(=O)[C@@H](NC(=O)[C@H](Cc1ccccc1)NC)C(C)C)C(=O)N[C@@H](Cc1ccccc1)C(=O)N[C@H](C(=O)N[C@@H](Cc1ccc(O)cc1)C(=O)NCC(=O)N[C@@H](CCC(=O)O)C(=O)N[C@H]1CCC(=O)NCCCC[C@@H](C(N)=O)NC(=O)[C@H](CC(C)C)NC(=O)[C@H](CCCNC(=N)N)NC(=O)[C@H](CCC(N)=O)NC1=O)[C@@H](C)O` [SEQ ID NO:22, cyclo^10,14 [N-MePhe^1,Glu^10,Leu^13,Lys^14]pMOT(1-14) amide] (H-[NMeF]VPIFTYGEEQRLK-NH2; lactam 10-14), in data set [1], the half-life at 0.5 mg/ml is 35 min. The molecule also yielded a negative logarithm of the EC50 (pEC50) in data set [2] of 8.73. Besides, the IC50 in data set [3] is 0.912 nM.

Regarding `CC[C@H](C)[C@H](NC(=O)[C@@H]1CCCN1C(=O)[C@@H](NC(=O)[C@@H](N)Cc1ccccc1)C(C)C)C(=O)N[C@@H](Cc1ccccc1)C(=O)N[C@H](C(=O)N[C@@H](Cc1ccc(O)cc1)C(=O)NCC(=O)N[C@@H](CCC(=O)O)C(=O)N[C@@H](CC(C)C)C(=O)N[C@@H](CCC(N)=O)C(=O)N[C@@H](CCCNC(=N)N)C(=O)N[C@@H](CCSC)C(=O)N[C@@H](CCC(N)=O)C(=O)N[C@@H](CCC(=O)O)C(=O)N[C@@H](CCCCN)C(=O)N[C@@H](CCC(=O)O)C(=O)N[C@@H](CCCNC(=N)N)C(=O)N[C@@H](CC(N)=O)C(=O)N[C@@H](CCCCN)C(=O)NCC(=O)N[C@@H](CCC(N)=O)C(=O)O)[C@@H](C)O` [motilin], the “half-life (t1/2)” value in data set [4] is 4.5 min.
